Experimental data as given in patent US10149887B2, “Peptides and peptidomimetics in combination with t cell activating and/or checkpoint inhibiting agents for cancer treatment” (CanBas Co., Ltd., priority 2015, dated 2018).
Where two headings read alike, the source gives them in different places. Square brackets hold non-standard residues; d marks the D form. Peptide text beside a SMILES is read from it. dPhe(F5) = N[C@H](Cc1c(F)c(F)c(F)c(F)c1F)C(=O)O; dBpa = N[C@H](Cc1ccc(C(=O)c2ccccc2)cc1)C(=O)O; dCha = N[C@H](CC1CCCCC1)C(=O)O

How the values were obtained:
Jurkat cells [1] = test: Side effect of peptide used alone: Jurkat cell cycle disturbance (flow cytometry); type: cell-based; conditions: dose that produced Jurkat cell cycle disturbance, peptide alone
Method in brief: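 Cell-cycle profiles were obtained by flow cytometry after propidium iodide staining in Krishan's solution for 1 hr at 4 °C. The value is the peptide dose given alone that disturbed the cell cycle, seen as significant SubG1 (dead) cells or unusually variable DNA content.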

Jurkat cells [2] = test: M phase checkpoint abrogation / non specific toxicity, colchicine treated Jurkat cells; type: cell-based
HUVEC = test: G2 checkpoint abrogation by CBP501 combined with cis-platin, flow cytometry; type: cell-based, human; conditions: umbilical vein endothelium, cis-platin 3 μg/ml 3 hr, then 45 hr
Experimental: (§1) The medium was aspirated, fresh medium without these compounds was added and the cells were incubated for an additional 45 hr. The cells including floating cells were harvested using trypsin-EDTA solution, incubated with Krishan's solution and analyzed for DNA content by flow cytometry as previously described.

MCF-7 = test: as above; type: cell-based; conditions: MCF-7, mammary gland; cis-platin 3 μg/ml 3 hr, then 45 hr
Experimental: as §1

MK45 = test: as above; type: cell-based; conditions: MK45, stomach; cis-platin 3 μg/ml 3 hr, then 45 hr
Experimental: as §1

MIAPaCa2 = conditions: three hours exposure
Experimental: The medium was changed and incubated an additional 24, 48 or 72 hour. Following incubation, 20 μl of alamarBlue 90% reagent was added to each well for another 6 hours for detection of cell viability by fluorescent intensity. Fluorescent intensity was measured using a Spectrafluor Plus plate reader with exitation 530 nm and emission 590 nm. The IC50 was calculated (Table 6).

[3] = system: MIAPaCa2 human pancreatic carcinoma cells; test: MIAPaCa2 subcutaneous xenograft in scid mice; type: in vivo, mouse
Experimental: Day0 indicates treatment initiation. Mean tumor sizes with standard deviation for each treatment group are indicated on the Y-axis and the number of days following treatment initiation are indicated on the X-axis.
To study in vivo efficacy of the compounds, MIAPaCa2 human pancreatic carcinoma cells were implanted subcutaneously in scid mice. The treatment was initiated when the size of the primary tumor became 0.1 cm3 (Day0) or larger, e.g., 7 or 8 mm in diameter. CDDP (3 mg/kg) and CBP 501 (10 or 40 mg/kg) were intra-peritoneally administered alone or in combination. Tumor sizes were measured using calipers three times a week, and volumes were calculated using the formula: weight (mg)=[width (mm)2×length (mm)]/2. Mean tumor sizes for each treatment group are plotted (n=4) against the days after the start of treatment (FIG. 10).

neutrophils = test: NET formation by activated neutrophils (elastase activity); type: cell-based, human; conditions: 1 μM CBP501; PMA, A23187 or LPS
Description: Referring to FIG. 17, Neutrophils were purified with EasySep neutrophil enrichment kit (Stemcell technol.) from human peripheral blood after removal of red blood cells with Hetasep (Stemcell technol.).

phospho-eIF2-alpha = test: CDDP-induced phosphorylation of eIF2-alpha in CT26WT cells (immunoblotting); type: cell-based, murine; conditions: 10-20 uM CDDP with 0.5 μM CBP501, 45 min
Experimental: A day later, cells were collected and analyzed by immunoblotting using specific antibody against phospho-eIF2-alpha (n=8) (FIG. 22A) and the amount of relative Phospho-eIF2-alpha was quantitated (FIG. 22B). Samples were compared by student's t-test. *P<0.05 **P<0.01, compared with untreated cells, and ^†P<0.05, ^††P<0.01, compared with the corresponding CDDP alone.
After changing with fresh drug-free medium, cells were incubated for 24, 48, or 72 hours for Immunoblotting analysis of phospho-eIF2-alpha, for calreticulin analysis by FACS, or for HMGB1 ELISA.
Cells were lysed by incubating with a buffer [NaCl (100 mM), Tris-HCl (50 mM, pH 8.0), DTT (1 mM), NP40 (0.5% w/v) containing PhosSTOP Phosphatase Inhibitor Cocktail and Complete Proteinase Inhibitor Cocktail Tablets (Roche Life Science) each diluted to the manufacturer's specified concentrations] at 4° C. for 30 minutes and centrifuged (15 000 rpm, 4° C., 20 minutes). The supernatant (whole-cell lysate) was electrophoresed (SDS-PAGE), and transferred from the gel onto a polyvinylidene difluoride (PVDF) membrane (Millipore) by electroblotting. […] Images were recorded with a Luminescent Image Analyzer LAS-4000 system (Fujifilm) and quantified the band intensity with Multi Gauge software (Fujifilm).

[4] = cited from earlier work

## N=C(N)NCCC[C@@H](NC(=O)[C@@H](CCCNC(=N)N)NC(=O)[C@@H](CCC(N)=O)NC(=O)[C@@H](CCCNC(=N)N)NC(=O)[C@@H](CCCNC(=N)N)NC(=O)[C@@H](CCCNC(=N)N)NC(=O)[C@@H](CC1CCCCC1)NC(=O)[C@@H](Cc1c(F)c(F)c(F)c(F)c1F)NC(=O)[C@@H](CO)NC(=O)[C@@H](Cc1c[nH]c2ccccc12)NC(=O)[C@@H](CO)NC(=O)[C@H](N)Cc1ccc(C(=O)c2ccccc2)cc1)C(=O)O [CBP501, (d-Bpa)(d-Ser)(d-Trp)(d-Ser)(d-Phe-2,3,4,5,6-F)(d-Cha)(d-Arg)(d-Arg)(d-Arg)(d-Gln)(d-Arg)(d-Arg)] (H-[dBpa][dS][dW][dS][dPhe(F5)][dCha][dR][dR][dR][dQ][dR][dR]-OH; N-terminus and C-terminus assumed)
Jurkat cells [1]
  Appearance of side effect when used alone: >50 µM
Jurkat cells [2]; 0.5 μg/ml colchicine, unchanged percentage of M phase arrested cells
  Non specific toxicity (M checkpoint abrogation), dose up to which absent: > 50 µM
Jurkat cells [2]; FIG. 12
  M phase cell cycle arrest and/or non specific toxicity induced by colchicine (in words): does not affect M phase cell cycle arrest and/or non specific toxicity induced by colchicine
Jurkat cells [2]; dose with 5 μg/ml colchicine that produced Jurkat cell cycle disturbance, 24 hours
  Appearance of side effect when used with Colchicine: >25 µM
HUVEC
  G2 checkpoint abrogating dose of CBP501, cis-platin: >50 µM
MCF-7
  G2 checkpoint abrogating dose of CBP501, cis-platin: >10 µM
MK45
  G2 checkpoint abrogating dose of CBP501, cis-platin: >10 µM
MIAPaCa2; read-out: IC50 24 hr, CBP501 with 10 uM cisplatin, with 10 uM cisplatin, additional 24 hour
  IC50: 0.6 µM
MIAPaCa2; read-out: IC50 24 hr, additional 24 hour
  IC50: 6 µM
MIAPaCa2; read-out: IC50 48 hr, CBP501 with 10 uM cisplatin, with 10 uM cisplatin, additional 48 hour
  IC50: 1 µM
MIAPaCa2; read-out: IC50 48 hr, additional 48 hour
  IC50: 10 µM
MIAPaCa2; read-out: IC50 72 hr, CBP501 with 10 uM cisplatin, with 10 uM cisplatin, additional 72 hour
  IC50: 6 µM
MIAPaCa2; read-out: IC50 72 hr, additional 72 hour
  IC50: 13 µM
[3]; CBP501 10 or 40 mg/kg ip
  Tumor growth, CBP501 treatment alone: suppresses the growth of human pancreatic cancer cell in vivo
[3]; CDDP 3 mg/kg and CBP501 10 or 40 mg/kg ip
  Anti-tumor activity of cisplatin in combination with CBP501: increased the anti-tumor activity of cisplatin
neutrophils
  NET formation by activated neutrophils: increased NET formation
phospho-eIF2-alpha
  CDDP-induced phosphorylation of eIF2-alpha: augmented
[4]; CBP501 36.4 mg/m^2 and cisplatin 75 mg/m^2
  Patients with dose limiting allergic reactions (grade 3): two out of six
[4]; with cisplatin 75 mg/m^2, once every 21 days
  MTD of CBP501 in combination with cisplatin: 24.3 mg/m^2
